In US9403810B2, “Carboxamide derivatives” (Novartis AG, priority 2014, dated 2016):

These compounds were tested against Smurf-1 (Homo sapiens (Human), UniProt Q9HCE7) (assay: HECT E3 ligase autoubiquitinylation TR-FRET assay (Smurf-1)). Settings: 8-point dose-response curve, 3 nM to 10 uM; 45 min incubation.
Assay type: biochemical
Source text: To determine the HECT E3 ligase selectivity of the compounds, a panel of biochemical HECT E3 ligase autoubiquitinylation assays was employed (Smurf-1, Smurf-2, WWP1, WWP2, ITCH, Nedd4, Nedd4L and E6AP). The conjugation of ubiquitin to a protein substrate is a multistep process. In an initial ATP-requiring step, a thioester bond is formed between the carboxyl terminus of ubiquitin and an internal cystein residue of the ubiquitin-activating enzyme (E1). Activated ubiquitin is then transferred to a specific cystein residue of an ubiquitin-conjugating enzyme (E2). E2s donate ubiquitin to a HECT E3 ligase (E3) from which it is transferred to the substrate protein. HECT E3 ligases can auto-ubiquitinylate. This event is detected in the TR-FRET (Time-Resolved Fluorescence Resonance Energy Transfer) assay used in this panel. The reaction mix contains E1, E2, tagged-E3, biotin-conjugated ubiquitin, the compound and ATP in a suitable buffer and is incubated for 45 minutes to allow auto-ubiquitinylation of the E3 ligase. To measure the extent of ubiquitinylated E3 ligase by TR-FRET, the donor fluorophore Europium cryptate (Eu3+ cryptate), conjugated to streptavidin which subsequently binds to biotinylated ubiquitin, and the modified allophycocyanin XL665 (HTRF® primary acceptor fluorophore) coupled to a tag-specific antibody (HA, His or GST), which recognizes the respective E3 ligase fusion proteins, are added after the reaction is complete. When these two fluorophores are brought together by a bimolecular interaction (in this case ubiquitinylation of the E3 ligase), a portion of the energy captured by the Cryptate during excitation is released through fluorescence emission at 620 nm, while the remaining energy is transferred to XL665. This energy is then released by XL665 as specific fluorescence at 665 nm. Light at 665 nm is emitted only through FRET with Europium.
Test and reference compounds are prepared at 180× [final] in 90% DMSO, and diluted 1:3 in 90% DMSO.
For the biochemical assay panel, 50 nl of the test compounds, reference compounds and buffer/DMSO control are transferred to the respective wells of a 384-well white GREINER “SMALL VOLUME” PS plate. The assay panel is run at room temperature on a Biomek FX liquid handling workstation. To the assay plates containing 50 nl compound or control solutions in 90% DMSO, 4.5 ul of E3 ligase solution were added per well, followed by 4.5 ul of the pre-incubated E1/E2/Ub mix or the pre-diluted ubiquitin (LOW control). Plates are shaken vigorously after each addition. In this assay the compound concentrations range from 3 nM to 10 uM in an 8-point dose-response curve.
After an incubation time of 45 min in the dark, the plates are transferred into the Pherastar fluorescence reader to measure the TR-FRET signal.

Smurf-1, sequence (Q9HCE7 whole entry): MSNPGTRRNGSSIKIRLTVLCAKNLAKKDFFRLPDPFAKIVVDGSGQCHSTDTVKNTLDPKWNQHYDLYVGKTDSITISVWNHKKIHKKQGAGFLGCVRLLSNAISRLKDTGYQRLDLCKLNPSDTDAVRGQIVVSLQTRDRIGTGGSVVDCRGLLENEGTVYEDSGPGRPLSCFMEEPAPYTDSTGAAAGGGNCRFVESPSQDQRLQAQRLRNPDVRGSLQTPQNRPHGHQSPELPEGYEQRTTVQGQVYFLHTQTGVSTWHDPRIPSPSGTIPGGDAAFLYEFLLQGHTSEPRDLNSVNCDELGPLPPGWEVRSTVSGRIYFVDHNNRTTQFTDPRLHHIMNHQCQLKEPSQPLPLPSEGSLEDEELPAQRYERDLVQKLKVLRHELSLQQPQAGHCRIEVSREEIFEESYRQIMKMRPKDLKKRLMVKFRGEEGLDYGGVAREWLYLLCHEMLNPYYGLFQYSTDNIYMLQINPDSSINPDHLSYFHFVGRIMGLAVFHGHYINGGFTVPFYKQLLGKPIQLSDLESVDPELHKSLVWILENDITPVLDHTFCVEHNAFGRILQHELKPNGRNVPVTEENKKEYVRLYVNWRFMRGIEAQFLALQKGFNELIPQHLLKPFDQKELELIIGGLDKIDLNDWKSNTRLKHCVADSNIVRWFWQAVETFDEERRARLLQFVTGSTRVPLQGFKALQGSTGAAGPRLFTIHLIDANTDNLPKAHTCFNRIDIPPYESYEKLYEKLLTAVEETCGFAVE

SMILES | IC50
Cc1c(C(=O)Nc2c(C)n(C)n(C3CCCCC3)c2=O)noc1[C@@H]1OCC(C)(C)O[C@H]1C [Example 20, N-(2-Cyclohexyl-1,5-dimethyl-3-oxo-2,3-dihydro-1H-pyrazol-4-yl)-4-methyl-5-((2R,3S)-3,5,5-trimethyl-1,4-dioxan-2-yl)isoxazole-3-carboxamide] | 180 nM
Cc1c(C(=O)Nc2c(C)n(C)n(C3CCCCC3)c2=O)noc1C1CC(Br)C(C)CO1 (stereo not shown) [Example 21.1, 5-(4-Bromo-5-methyltetrahydro-2H-pyran-2-yl)-N-(2-cyclohexyl-1,5-dimethyl-3-oxo-2,3-dihydro-1H-pyrazol-4-yl)-4-methylisoxazole-3-carboxamide] | 630 nM
CC1=CCC(c2onc(C(=O)Nc3c(C)n(C)n(C4CCCCC4)c3=O)c2C)OC1 (stereo not shown) [Example 21.2, N-(2-cyclohexyl-1,5-dimethyl-3-oxo-2,3-dihydro-1H-pyrazol-4-yl)-4-methyl-5-(5-methyl-3,6-dihydro-2H-pyran-2-yl)isoxazole-3-carboxamide] | 490 nM
Cc1c(C(=O)Nc2c(C)n(C)n(C3CCCCC3)c2=O)noc1C1OCC(C)(C)CO1 [Example 26, N-(2-Cyclohexyl-1,5-dimethyl-3-oxo-2,3-dihydro-1H-pyrazol-4-yl)-5-(5,5-dimethyl-1,3-dioxan-2-yl)-4-methylisoxazole-3-carboxamide] | 580 nM
